Assay results: patent US20210293825A1, “METHODS FOR PRECISION THERAPEUTIC TARGETING OF HUMAN CANCER CELL MOTILITY AND KITS THEREOF” (UNITED STATES GOVERNMENT AS REPRESENTED BY THE DEPARTMENT …, priority 2018, published 2021)
Like-named read-outs stand apart in the source and are kept apart here.

Assays:
[1] = Plasma KBU2046 concentration after dosing in chow; format: in vivo, athymic mice; conditions: Balb/c athymic, mouse, oral
Experimental: Cohorts of N=12 athymic mice bearing human PCa PC3-M cell orthotopic implants (a), or of N=5 non-tumor bearing athymic mice (b), were treated with KBU2046 incorporated into chow, and resultant lung metastasis (a) or plasma KBU2046 concentration (b) measured. Values are the mean±SEM. The relationship between dose and metastasis was evaluated by two-sided ANOVA (a). FIG. 2c a comprehensive characterization of KBU2046 pharmacokinetics. CD1 mice were dosed with 100 mg KBU2046/kg via oral gavage or intravenous injection (iv), and blood collected at the indicated time points (data from mice dosed at 25 mg/kg are in FIG. 12, and corroborate 100 mg/kg findings). For each route and time point, N=3 mice were sampled. Individual data points are the resultant plasma concentrations from individual mice, and are the mean of N=2 measurements. The dotted horizontal line denotes a concentration of 24 nM, which was the concentration of KBU2046 measured in the blood of mice whose metastasis were suppressed by 92% (a-b). […]
KBU2046 Quantification and Pharmacokinetics. […]
Plasma KBU2046 concentrations were measured in duplicate by liquid chromatography-tandem mass spectrometry after sample preparation by solid-phase extraction. […] The mass-to-charge ratios of the precursor-to-product ion reactions monitored were 243.5→125.1 for KBU2046 and 257.0→165.0 for the internal standard. […]

PC3-M cells [2] = experiment: Boyden chamber cell invasion assay, PC3-M cells; format: cell-based, human
Experimental: Following the synthetic strategy outlined in FIG. 1a, 4′,5,7-trihydroxyisoflavone was used as the chemical scaffold. […] Note, demethylation within the cell cannot be predicted. Therefore, the loss of function was considered to be informative for methylated compounds. […] This adds further evidence of the importance of the C4′-hydroxyl for activity. […] For cell invasion, PC3-M cells were treated with 10 μM compound for a total of 3 days, and cell invasion assays were run at the end of the 3 day period, in the presence of compound. Values are the mean±SEM of three separate experiments, each run in replicates of N=3. […] Values are the mean±SEM of a single experiment, in replicates of N=4, repeated at least once (also N=4). […] The initial structure-activity relationship (SAR) data informed the second round of compound synthesis. […] Compared to 4′,5,7-trihydroxyisoflavone, KBU2046 is non-planar, lacks hydroxyl groups, and particularly those that mediate ER binding, is halogen-substituted, and has a distinctly different biological profile. These characteristics place KBU2046 in a chemically distinct class, compared to the starting compound.
Cell Invasion Assays. Boyden chamber cell invasion assays were performed as previously described^9, using either denatured collagen (BD Biosciences) or type IV human collagen (BD Biosciences), with the experiments repeated, each in N=4 replicates. In some experiments, as indicated, cells were transfected with an expression plasmid, using Lipofectamine 2000™ (Invitrogen), or with siRNA, using DharmaFect Duo (Thermo Scientific) and co-transfected with β-Galactosidase (Plasmid pCMV⋅SPORT-βgal; Life Technology).
The initial round of synthesis was designed to examine the removal of individual chemical fragments. In this manner, the importance of these functional groups in mediating efficacy (inhibition of cell invasion) could be determined. […] Initial assays were performed with PC3 and PC3-M cells. However, as these studies yielded similar findings, subsequent screening assays utilized only PC3-M cells. In designing chemical synthetic routes, priority was given to efficacy and toxicity parameters. […] These additional design features included removal of fragments that mediated genistein binding to the estrogen receptor (ER), as determined by ER-genistein 3D x-ray crystal structures (Protein Data Base IDs: 1X7R and 1X7J, for crystal structures of ERα and ERβ with bound genistein, respectively). These features also included removal of chemical fragments that are considered to increase susceptibility to rapid metabolism, for example by the cytochrome P450 (CYP) pathway. The final feature involved incorporation of chemical characteristics previously shown to be associated with effective drugs and which together generally impart more favorable pharmacologic properties, including those described by Lipinski et al. (Lipinski, C. A. et al., Adv Drug Deliv Rev 46, 3-26 (2001)).

PC3-M cells [3] = experiment: Three day MTT cell growth inhibition assay, PC3-M cells; format: cell-based, human

SMILES: O=C1c2ccccc2OCC1c1ccc(F)cc1 (racemic) [KBU2046, (±)-3(4-fluorophenyl)chroman-4-one]
- concentration at 35 days ([1]; doses that decreased metastasis, read-out: plasma concentrations): 1.1 to 24 nM
- concentration at 35 days ([1]; read-out: concentration in blood of mice whose metastasis were suppressed by 92%): 24 nM
- effect on cell invasion (PC3-M cells [2]; 10 μM compound, 3 days): anti-invasive efficacy at least equal to that of the starting compound
- inhibition of cell invasion (PC3-M cells [2]; (S226A)-HSP90β transfected PC3-M cells): does not further inhibit cell invasion
- inhibition of cell invasion (PC3-M cells [2]; (S226D)-HSP90β transfected PC3-M cells): did not significantly inhibit cell invasion
- anti-invasion efficacy under TGFβ-stimulated invasion (PC3-M cells [2]; PC3-M cells, ±TGFβ): retains efficacy
- inhibition of cell invasion (PC3-M cells [2]; VC and WT-HSP90β transfected PC3-M cells): significantly inhibited invasion
- efficacy on cell invasion (PC3-M cells [2]; siRNA-mediated HSP90β knockdown): abrogated KBU2046 efficacy
- inhibition of cell invasion (PC3-M cells [2]; vector control (VC) transfected PC3-M cells): significantly inhibits invasion
- cell growth inhibition (PC3-M cells [3]): no growth inhibitory effects
